Experimental findings from ChEMBL document CHEMBL4613322, “HOPPI-NMR: Hot-Peptide-Based Screening Assay for Inhibitors of Protein-Protein Interactions by NMR” (ACS Med Chem Lett, 2020) are described below.

Converted amounts (≈) assume the structure as drawn. Peptide text beside a SMILES is read from it.

The nature of series [1]: Solubility of compound in PBS. In kind it is physicochemical.
Another series addresses Bcl-2-like protein 1 (Mus musculus, UniProt Q64373). Briefly: Binding affinity to BCL-xl in murine B-cell lymphoma assessed as inhibition of BCL-xl/Bax protein-protein interaction.
Series [2] addresses T1, AP-1 complex subunit beta-1 (Homo sapiens, UniProt Q10567).
T1 sequence (Q10567 whole entry): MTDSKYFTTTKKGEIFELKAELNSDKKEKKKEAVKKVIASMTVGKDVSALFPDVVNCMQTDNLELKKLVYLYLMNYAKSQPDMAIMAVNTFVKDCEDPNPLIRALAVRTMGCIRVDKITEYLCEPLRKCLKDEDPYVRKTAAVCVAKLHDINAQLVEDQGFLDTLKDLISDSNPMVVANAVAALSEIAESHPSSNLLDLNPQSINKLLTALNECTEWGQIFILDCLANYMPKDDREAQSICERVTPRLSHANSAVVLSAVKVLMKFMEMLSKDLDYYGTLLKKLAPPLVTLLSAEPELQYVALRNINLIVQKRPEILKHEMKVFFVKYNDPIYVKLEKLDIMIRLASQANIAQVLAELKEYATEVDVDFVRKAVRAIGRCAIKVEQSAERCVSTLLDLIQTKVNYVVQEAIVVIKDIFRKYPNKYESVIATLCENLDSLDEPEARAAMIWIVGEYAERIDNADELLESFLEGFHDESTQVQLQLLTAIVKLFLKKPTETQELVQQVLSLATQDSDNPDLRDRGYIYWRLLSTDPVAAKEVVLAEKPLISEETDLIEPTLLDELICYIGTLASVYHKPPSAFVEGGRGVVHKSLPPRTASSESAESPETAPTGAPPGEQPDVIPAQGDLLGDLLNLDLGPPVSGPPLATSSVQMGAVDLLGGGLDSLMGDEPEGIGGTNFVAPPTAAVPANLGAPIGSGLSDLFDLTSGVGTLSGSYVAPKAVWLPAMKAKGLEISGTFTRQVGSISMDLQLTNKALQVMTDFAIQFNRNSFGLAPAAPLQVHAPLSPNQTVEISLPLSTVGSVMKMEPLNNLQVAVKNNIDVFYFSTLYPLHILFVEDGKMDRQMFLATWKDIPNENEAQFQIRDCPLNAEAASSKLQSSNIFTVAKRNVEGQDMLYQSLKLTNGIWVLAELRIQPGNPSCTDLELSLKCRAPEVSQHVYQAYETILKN
Briefly: Binding affinity to beta-adaptin 1 (unknown origin) by fluorescence polarization assay. Background: Fluorescence polarisation rises when a labelled molecule tumbles more slowly, as on binding a larger partner.

Bcl-2-like protein 1, sequence (Q64373 whole entry): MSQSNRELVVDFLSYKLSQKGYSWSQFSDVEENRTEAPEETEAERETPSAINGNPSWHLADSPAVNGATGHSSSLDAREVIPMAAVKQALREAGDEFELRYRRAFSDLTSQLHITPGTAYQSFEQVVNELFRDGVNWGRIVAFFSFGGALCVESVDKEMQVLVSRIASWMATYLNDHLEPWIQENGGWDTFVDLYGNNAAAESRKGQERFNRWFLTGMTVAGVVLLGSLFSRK

In general, solubility refers to the concentration that dissolves in the medium under given conditions. Read a high solubility as much dissolved substance. In series [1], `COc1ccc(C2=N[C@@H](c3ccc(Cl)cc3)[C@@H](c3ccc(Cl)cc3)N2C(=O)N2CCNC(=O)C2)c(OC(C)C)c1` [NUTLIN-3] showed a solubility of 100 µM (≈ 58.2 µg/mL).

The Kd is the concentration at which binding is half-saturated. Regarding `CC[C@H](C)[C@H](NC(=O)[C@H](CCCN=C(N)N)NC(=O)[C@H](CCCCN)NC(=O)[C@H](CC(C)C)NC(=O)[C@H](CS)NC(=O)[C@H](CCC(=O)O)NC(=O)[C@H](CO)NC(=O)[C@H](CC(C)C)NC(=O)[C@H](CCCCN)NC(=O)[C@@H](N)CCCCN)C(=O)NCC(=O)N[C@@H](CC(=O)O)C(=O)N[C@@H](CCC(=O)O)C(=O)N[C@@H](CC(C)C)C(=O)N[C@@H](CC(=O)O)C(=O)N[C@@H](CO)C(=O)O` (H-KKLSECLKRIGDELDS-OH), the Kd at Bcl-2-like protein 1 was 13 µM.

In the case of `CC[C@H](C)[C@H](NC(=O)[C@H](CC(=O)O)NC(=O)[C@H](CC(=O)O)NC(=O)[C@@H](N)CC(=O)O)C(=O)N[C@H](C(=O)N[C@@H](Cc1ccccc1)C(=O)N[C@@H](CCC(=O)O)C(=O)N[C@@H](CC(=O)O)C(=O)N[C@@H](Cc1ccccc1)C(=O)N[C@@H](C)C(=O)N[C@@H](CCCNC(=N)N)C(=O)N[C@@H](CCC(N)=O)C(=O)N[C@@H](CCCNC(=N)N)C(=O)N[C@@H](CC(C)C)C(=O)N[C@@H](CCCCN)C(=O)NCC(=O)N[C@@H](CCSC)C(=O)N[C@@H](CCCCN)C(=O)N[C@@H](CC(=O)O)C(=O)N[C@@H](CC(=O)O)C(=O)O)C(C)C` (H-DDDIVFEDFARQRLKGMKDD-OH), binding in series [2] was put at a Kd of 2.1 µM.
